The results in this text go back to ChEMBL document CHEMBL3714713, “4-phenyl-pyrimido [4,5-b] indole derivatives” (2004).

Activity calls are given as the source filed them. The calls are words filed in the database; no cut-off is given here.

Assay [1] deals with Mus musculus. As to the kind of experiment: Inhibition of anti-CD3 antibody-induced IFNgamma production in Balb/c mouse dosed intravenously 5 mins before anti-CD3 antibody injection and measured 2 hrs post-challenge by ELISA. The class given is functional, organism-based.
For assay [2], the system named is Mus musculus. Description: Inhibition of anti-CD3 antibody-induced IL4 production in Balb/c mouse dosed intravenously 5 mins before anti-CD3 antibody injection and measured 2 hrs post-challenge by ELISA. The class given is functional, organism-based.
In assay [3] the test system is Mus musculus. As to the kind of experiment: Inhibition of anti-CD3 antibody-induced IL2 production in Balb/c mouse dosed intravenously 5 mins before anti-CD3 antibody injection and measured 2 hrs post-challenge by ELISA. It counts as functional, organism-based. A general note: In an ELISA, binding on a coated surface is turned into a signal by an enzyme label.
Assay [4] deals with T1, Dual specificity mitogen-activated protein kinase kinase 7 (Homo sapiens, UniProt O14733).
T1 sequence (O14733 whole entry): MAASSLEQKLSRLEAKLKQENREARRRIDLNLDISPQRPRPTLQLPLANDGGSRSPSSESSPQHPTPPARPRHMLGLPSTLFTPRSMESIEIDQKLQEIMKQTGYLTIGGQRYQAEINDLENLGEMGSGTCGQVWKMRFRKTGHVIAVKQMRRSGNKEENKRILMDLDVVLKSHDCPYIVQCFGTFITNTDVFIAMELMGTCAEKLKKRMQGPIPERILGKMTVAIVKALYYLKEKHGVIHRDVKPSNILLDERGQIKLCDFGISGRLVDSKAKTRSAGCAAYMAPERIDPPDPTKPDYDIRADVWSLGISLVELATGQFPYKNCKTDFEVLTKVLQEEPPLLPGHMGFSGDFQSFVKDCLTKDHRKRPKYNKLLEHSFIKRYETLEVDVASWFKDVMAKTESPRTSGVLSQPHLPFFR
As to the kind of experiment: Inhibition of GST-tagged human MKK7 expressed in Escherichia coli (BL21(DE3) pLysS) co-expressing human MEKK catalytic domain using biotinylated and GST-tagged rat GST-KN-SAPKalpha substrate incubated for 1 hr by time-resolved fluorescence based assay.

With `COc1ccc2[nH]c3ncnc(-c4ccccc4)c3c2c1`, the outcome with Mus musculus [1], in the assay on Mus musculus [2] and in the assay on Mus musculus [3] was Active.

As to `N#Cc1ccc2[nH]c3nc(N)nc(-c4ccccc4)c3c2c1`, the outcome in the assay with Mus musculus [1], in the assay on Mus musculus [2] and in the assay on Mus musculus [3] was Active.

By IC50 is commonly meant the concentration at which inhibition is half-maximal. A lower IC50 goes with greater potency in that assay. Regarding `Oc1ccc2[nH]c3ncnc(-c4ccccc4)c3c2c1`, the half-inhibitory concentration (IC50) in assay [4] was at most 1000 nM. In addition, the result in the assay with Mus musculus [1], in the assay with Mus musculus [2] and in the assay with Mus musculus [3] was Active.

`CN(C)c1ccc(-c2ncnc3[nH]c4ccc(C(N)=O)cc4c23)cc1` had an IC50 in assay [4] of 1000 nM. Further, the outcome in the assay on Mus musculus [1], in the assay on Mus musculus [2] and with Mus musculus [3] was Active.

For the molecule `COc1ccc(-c2ncnc3[nH]c4ccc(OC)cc4c23)cc1`, the result with Mus musculus [1], with Mus musculus [2] and in the assay on Mus musculus [3] was Active.

Consider `N#Cc1ccc2[nH]c3ncnc(-c4cccc(N)c4)c3c2c1`, for which the result with Mus musculus [1], in the assay with Mus musculus [2] and in the assay with Mus musculus [3] was Active.

On to `NC(=O)c1ccc2[nH]c3ncnc(-c4ccc(F)cc4)c3c2c1`, for which, in assay [4], the IC50 is at most 1000 nM. Also, the outcome with Mus musculus [1], in the assay on Mus musculus [2] and with Mus musculus [3] was Active.

For the molecule `CN(C)c1ccc(-c2ncnc3[nH]c4ccc(C#N)cc4c23)cc1`, the outcome in the assay on Mus musculus [1], in the assay with Mus musculus [2] and in the assay on Mus musculus [3] was Active.

Regarding `COc1ccc(-c2ncnc3[nH]c4ccc(C#N)cc4c23)cc1`, the outcome with Mus musculus [1], in the assay on Mus musculus [2] and in the assay on Mus musculus [3] was Active.

With `NC(=O)c1ccc2[nH]c3ncnc(-c4ccccc4)c3c2c1`, the 50% inhibitory concentration (IC50) in assay [4] is at most 1000 nM. The outcome with Mus musculus [1], in the assay with Mus musculus [2] and with Mus musculus [3] was Active.

Turning to `NC(=O)c1ccc2[nH]c3ncnc(-c4cccc(N)c4)c3c2c1`, the result with Mus musculus [1], in the assay on Mus musculus [2] and in the assay on Mus musculus [3] was Active.

Regarding `NC(=O)c1ccc2[nH]c3nc(N)nc(-c4ccccc4)c3c2c1`, in assay [4], the IC50 is at most 1000 nM. In addition, the result in the assay with Mus musculus [1], in the assay on Mus musculus [2] and in the assay on Mus musculus [3] was Active.

Regarding `COc1ccc(-c2ncnc3[nH]c4ccc(C(N)=O)cc4c23)cc1`, the outcome in the assay on Mus musculus [1], in the assay with Mus musculus [2] and in the assay on Mus musculus [3] was Active.

For the molecule `N#Cc1ccc2[nH]c3ncnc(-c4ccccc4)c3c2c1`, the result in the assay on Mus musculus [1], with Mus musculus [2] and with Mus musculus [3] was Active.

`COc1ccc(-c2ncnc3[nH]c4ccc(O)cc4c23)cc1` registered a 50% inhibitory concentration (IC50) in assay [4] of at most 1000 nM. For the same molecule, the outcome in the assay with Mus musculus [1], with Mus musculus [2] and with Mus musculus [3] was Active.

Consider `Oc1ccc2[nH]c3ncnc(-c4ccc(F)cc4)c3c2c1`, for which, in assay [4], the IC50 is at most 1000 nM. In addition, the outcome in the assay on Mus musculus [1], in the assay with Mus musculus [2] and with Mus musculus [3] was Active.

Take `N#Cc1ccc2[nH]c3ncnc(-c4ccc(F)cc4)c3c2c1`: the outcome with Mus musculus [1], with Mus musculus [2] and in the assay on Mus musculus [3] was Active.
